Measured values published in ChEMBL document CHEMBL1201862, “PubChem BioAssay data set” (2004).
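Where inhibition never reached the appropriate level, the endpoint shown equals the highest concentration tested. Otherwise, values were interpolated linearly from a five-concentration, 48-hour dose response in 96-well plates. Abbreviation: GI50, concentration required for 50% inhibition of growth.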 The source made the active and inactive calls. No stated cut-off is given here; in the data, active = GI50 up to about 1.1 µM and inactive = higher.

Key:
Experiment in all cases: growth of human tumour cells (NCI), 48 h
HCC 2998 = tested on: HCC 2998
IGROV-1 = tested on: IGROV-1
KM12 = tested on: KM12
M14 = tested on: M14
Malme-3M = tested on: Malme-3M
NCI-H522 = tested on: NCI-H522
OVCAR-4 = tested on: OVCAR-4
OVCAR-5 = tested on: OVCAR-5
RXF 393 = tested on: RXF 393
SF-268 = tested on: SF-268
SF-539 = tested on: SF-539
SK-MEL-28 = tested on: SK-MEL-28
UACC-257 = tested on: UACC-257
UACC-62 = tested on: UACC-62
UO-31 = tested on: UO-31
BT-549 = tested on: BT-549
HCT-116 = tested on: HCT-116
MDA-MB-231 = tested on: MDA-MB-231
NCI/ADR-RES = tested on: NCI/ADR-RES
Hs-578T = tested on: Hs-578T

Row | SMILES | GI50 (HCC 2998) | GI50 (IGROV-1) | GI50 (KM12) | GI50 (M14) | GI50 (Malme-3M) | GI50 (NCI-H522) | GI50 (OVCAR-4) | GI50 (OVCAR-5) | GI50 (RXF 393) | GI50 (SF-268) | GI50 (SF-539) | GI50 (SK-MEL-28) | GI50 (UACC-257) | GI50 (UACC-62) | GI50 (UO-31) | GI50 (BT-549) | GI50 (HCT-116) | GI50 (MDA-MB-231) | GI50 (NCI/ADR-RES) | GI50 (Hs-578T)
1 | Cc1nn(-c2ccccc2)c(S)c1C(=O)c1ccccc1 | 29.8 µM (inactive) | 51.2 µM (inactive) | 33 µM (inactive) | 31.1 µM (inactive) | > 100 µM (inactive) | 36.6 µM (inactive) | 40.7 µM (inactive) | 62.2 µM (inactive) | 3.41 µM (inactive) | 51.1 µM (inactive) | 40.7 µM (inactive) | 33.5 µM (inactive) | 76.2 µM (inactive) | 47.1 µM (inactive) | 36 µM (inactive) | – | – | – | – | –
2 | CCCCCCSCC/C(C)=N\OC | > 100 µM (inactive) | > 100 µM (inactive) | > 100 µM (inactive) | > 100 µM (inactive) | > 100 µM (inactive) | > 100 µM (inactive) | > 100 µM (inactive) | > 100 µM (inactive) | > 100 µM (inactive) | > 100 µM (inactive) | > 100 µM (inactive) | > 100 µM (inactive) | > 100 µM (inactive) | > 100 µM (inactive) | > 100 µM (inactive) | > 100 µM (inactive) | > 100 µM (inactive) | > 100 µM (inactive) | > 100 µM (inactive) | –
3 | CCCCCCCCCCCCCCCc1ccc(OCC(O)CO)cc1 (stereo not drawn) | 22.9 µM (inactive) | 31.3 µM (inactive) | 17.2 µM (inactive) | 17.9 µM (inactive) | 22.4 µM (inactive) | 18.2 µM (inactive) | 16.3 µM (inactive) | > 100 µM (inactive) | 18.7 µM (inactive) | 27.9 µM (inactive) | 49.7 µM (inactive) | 25.6 µM (inactive) | 38.8 µM (inactive) | 23.9 µM (inactive) | > 100 µM (inactive) | – | 17.1 µM (inactive) | – | – | –
4 | OCC(O)COc1ccc(Br)cc1 (stereo not drawn) | > 100 µM (inactive) | > 100 µM (inactive) | > 100 µM (inactive) | > 100 µM (inactive) | > 100 µM (inactive) | > 100 µM (inactive) | > 100 µM (inactive) | > 100 µM (inactive) | > 100 µM (inactive) | > 100 µM (inactive) | > 100 µM (inactive) | > 100 µM (inactive) | > 100 µM (inactive) | > 100 µM (inactive) | > 100 µM (inactive) | – | > 100 µM (inactive) | – | – | –
5 | O=C(CC1C(=O)c2ccccc2C1=C1C(=O)c2ccccc2C1=O)c1ccccc1 (stereo not drawn) | > 100 µM (inactive) | > 100 µM (inactive) | > 100 µM (inactive) | > 100 µM (inactive) | > 100 µM (inactive) | 19.9 µM (inactive) | 77.6 µM (inactive) | > 100 µM (inactive) | > 100 µM (inactive) | > 100 µM (inactive) | > 100 µM (inactive) | > 100 µM (inactive) | > 100 µM (inactive) | > 100 µM (inactive) | > 100 µM (inactive) | – | – | – | – | –
6 | COC(=O)C1Cc2c([nH]c3ccccc23)-c2[nH]c3ccccc3c2CC(NC(C)=O)C(=O)NCC(=O)N1 (stereo not drawn) | > 100 µM (inactive) | 0.914 µM (active) | > 100 µM (inactive) | – | – | > 100 µM (inactive) | > 100 µM (inactive) | > 100 µM (inactive) | > 100 µM (inactive) | > 100 µM (inactive) | > 100 µM (inactive) | > 100 µM (inactive) | > 100 µM (inactive) | > 100 µM (inactive) | > 100 µM (inactive) | – | > 100 µM (inactive) | > 100 µM (inactive) | > 100 µM (inactive) | > 100 µM (inactive)
7 | O=S(=O)(c1cc(Cl)ccc1Cl)N1CCN(c2cccc(Cl)c2)CC1 | > 100 µM (inactive) | > 100 µM (inactive) | > 100 µM (inactive) | > 10 µM (inactive) | > 100 µM (inactive) | > 100 µM (inactive) | > 100 µM (inactive) | > 100 µM (inactive) | > 100 µM (inactive) | > 100 µM (inactive) | > 100 µM (inactive) | > 100 µM (inactive) | > 100 µM (inactive) | – | > 100 µM (inactive) | > 100 µM (inactive) | > 100 µM (inactive) | > 100 µM (inactive) | – | > 100 µM (inactive)
8 | CCCCc1ccc(N2C(=O)c3cc([N+](=O)[O-])cnc3S2(=O)=O)cc1 | > 100 µM (inactive) | > 100 µM (inactive) | > 100 µM (inactive) | > 100 µM (inactive) | > 100 µM (inactive) | – | > 100 µM (inactive) | > 100 µM (inactive) | – | 24.2 µM (inactive) | > 100 µM (inactive) | > 100 µM (inactive) | > 100 µM (inactive) | > 100 µM (inactive) | > 100 µM (inactive) | 87.7 µM (inactive) | > 100 µM (inactive) | > 100 µM (inactive) | 25.2 µM (inactive) | > 100 µM (inactive)
9 | CN(C)CCOc1ccc([N+](=O)[O-])c2cccnc12 | > 100 µM (inactive) | > 100 µM (inactive) | > 100 µM (inactive) | > 100 µM (inactive) | > 100 µM (inactive) | 61.9 µM (inactive) | – | > 100 µM (inactive) | – | > 100 µM (inactive) | > 100 µM (inactive) | > 100 µM (inactive) | 86.9 µM (inactive) | > 100 µM (inactive) | > 100 µM (inactive) | > 100 µM (inactive) | 35.6 µM (inactive) | 30.2 µM (inactive) | > 100 µM (inactive) | > 100 µM (inactive)
10 | O=C(N/C(=C\c1ccc([N+](=O)[O-])cc1)c1nc2ccccc2s1)c1ccccc1 | 57.4 µM (inactive) | 23 µM (inactive) | 22.5 µM (inactive) | 31.9 µM (inactive) | > 100 µM (inactive) | > 10 µM (inactive) | 29.9 µM (inactive) | 54.7 µM (inactive) | 28.6 µM (inactive) | 20.1 µM (inactive) | 23.6 µM (inactive) | 39.5 µM (inactive) | 28.1 µM (inactive) | 20.4 µM (inactive) | 24.3 µM (inactive) | – | 27 µM (inactive) | – | – | –
11 | O=C1NC(=S)NC1C(Cc1ccccc1)c1ccco1 (stereo not drawn) | > 100 µM (inactive) | > 100 µM (inactive) | > 100 µM (inactive) | > 100 µM (inactive) | > 100 µM (inactive) | > 100 µM (inactive) | > 100 µM (inactive) | > 100 µM (inactive) | > 100 µM (inactive) | > 100 µM (inactive) | > 100 µM (inactive) | > 100 µM (inactive) | > 100 µM (inactive) | – | > 100 µM (inactive) | – | > 100 µM (inactive) | > 100 µM (inactive) | > 100 µM (inactive) | > 100 µM (inactive)
12 | COC(=O)[C@]12CSC[C@H]1C[C@H](c1cccc3ccccc13)N2 | > 100 µM (inactive) | 43.1 µM (inactive) | > 100 µM (inactive) | > 100 µM (inactive) | – | – | – | > 100 µM (inactive) | – | – | > 100 µM (inactive) | > 100 µM (inactive) | > 100 µM (inactive) | > 100 µM (inactive) | > 100 µM (inactive) | > 100 µM (inactive) | 51.6 µM (inactive) | > 100 µM (inactive) | > 100 µM (inactive) | –
13 | CCOc1ccc(NCC2CC/C(=C\c3ccc(Cl)cc3)C2=O)cc1 (stereo not drawn) | 13 µM (inactive) | > 36 µM (inactive) | 14.2 µM (inactive) | 20.4 µM (inactive) | 34.5 µM (inactive) | 6.25 µM (inactive) | 39.7 µM (inactive) | > 100 µM (inactive) | > 47.9 µM (inactive) | > 55.2 µM (inactive) | > 41.7 µM (inactive) | 50.2 µM (inactive) | > 38.9 µM (inactive) | > 40.7 µM (inactive) | > 42.5 µM (inactive) | – | 31.1 µM (inactive) | – | – | –
14 | COc1cc2cc3c4c(cc(OC)c(OC)c4c2cc1OC)CCN3C(=O)CCCC(=O)O | > 100 µM (inactive) | > 100 µM (inactive) | > 100 µM (inactive) | > 100 µM (inactive) | > 100 µM (inactive) | > 100 µM (inactive) | 34.8 µM (inactive) | > 100 µM (inactive) | > 100 µM (inactive) | > 100 µM (inactive) | > 100 µM (inactive) | > 100 µM (inactive) | > 100 µM (inactive) | > 100 µM (inactive) | > 100 µM (inactive) | – | > 100 µM (inactive) | – | – | –
15 | CSC1=N/C(=C\c2ccccc2)C(=O)N1CN1CCOCC1 | – | 52.7 µM (inactive) | 93.5 µM (inactive) | 91.8 µM (inactive) | 57.3 µM (inactive) | 51.8 µM (inactive) | 28.2 µM (inactive) | > 100 µM (inactive) | – | 61.5 µM (inactive) | – | > 100 µM (inactive) | – | 34 µM (inactive) | 38.3 µM (inactive) | – | 39.4 µM (inactive) | > 100 µM (inactive) | 17.1 µM (inactive) | 47.5 µM (inactive)
16 | C[C@@H]1C[C@]2(C[C@@H](C)[C@H]3C(C[C@@]4(C)CCC[C@@H]5C6=C[C@H](CCC34C)OC6=CC(=O)OC5(C)C)O2)OC1=O (stereo partly drawn) | > 51.5 µM (inactive) | > 51.5 µM (inactive) | > 51.5 µM (inactive) | – | – | > 51.5 µM (inactive) | > 51.5 µM (inactive) | > 51.5 µM (inactive) | – | – | > 51.5 µM (inactive) | – | > 51.5 µM (inactive) | > 51.5 µM (inactive) | > 51.5 µM (inactive) | – | – | – | > 51.5 µM (inactive) | –
17 | O=C1CCC2(c3ccc(F)cc3)Nc3ccccc3N12 (stereo not drawn) | > 100 µM (inactive) | > 100 µM (inactive) | > 100 µM (inactive) | > 100 µM (inactive) | > 100 µM (inactive) | > 100 µM (inactive) | > 100 µM (inactive) | > 100 µM (inactive) | > 100 µM (inactive) | > 100 µM (inactive) | > 100 µM (inactive) | > 100 µM (inactive) | > 100 µM (inactive) | > 100 µM (inactive) | > 100 µM (inactive) | – | – | – | – | –
